{"source": "patent US11370798B2", "about": "(Vertex Pharmaceuticals Incorporated, priority 2012, dated 2022)"}
{"test_system": "HCT116 colorectal cancer cells", "assay": "Cisplatin sensitization assay (96 h cell viability MTS);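 further: Test-compound concentration that lowers the Cisplatin IC50 by a set fold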", "type": "cell-based", "conditions": "compound and Cisplatin added simultaneously, Cisplatin sensitization value", "outline": "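Viability read by MTS (1 h at 37° C) after 96 h co-exposure at 37° C, 5% CO2. Test compound and cisplatin were dosed simultaneously in a full concentration matrix, each 2-fold serially diluted from 10 μM final; sensitization values binned in μM.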"}
{"smiles": "Nc1nn2cc(F)cnc2c1C(=O)Nc1cnccc1N1CCN2CCOC[C@H]2C1", "note": "[I-N-116, (R)-2-amino-6-fluoro-N-(4-(hexahydropyrazino[2,1-c][1,4]oxazin-8(1H)-yl)pyridin-3-yl)pyrazolo[1,5-a]pyrimidine-3-carboxamide]", "Cisplatin Sensitization Assay": "++ (Cisplatin sensitization value>0.02 μM but <0.2 μM)"}
{"smiles": "CN1CCN(c2c(C#N)cncc2NC(=O)c2c(N)nn3cc(F)cnc23)CC1", "note": "[I-N-113, 2-amino-N-(5-cyano-4-(4-methylpiperazin-1-yl)pyridin-3-yl)-6-fluoropyrazolo[1,5-a]pyrimidine-3-carboxamide]", "Cisplatin Sensitization Assay": "+ (Cisplatin sensitization value>0.2 μM but <5 μM)"}
{"smiles": "N#CCc1cnc2c(C(=O)Nc3cnccc3N3CCCC3)c(N)nn2c1", "note": "[I-N-77, 2-amino-6-(cyanomethyl)-N-(4-(pyrrolidin-1-yl)pyridin-3-yl)pyrazolo[1,5-a]pyrimidine-3-carboxamide]", "Cisplatin Sensitization Assay": "+ (Cisplatin sensitization value>0.2 μM but <5 μM)"}
{"smiles": "Nc1nn2cc(F)cnc2c1C(=O)Nc1cnccc1-c1ccccn1", "note": "[I-C-60, N-([2,4′-bipyridin]-3′-yl)-2-amino-6-fluoropyrazolo[1,5-a]pyrimidine-3-carboxamide]", "Cisplatin Sensitization Assay": "++ (Cisplatin sensitization value>0.02 μM but <0.2 μM)"}
{"smiles": "N#CCc1cnc2c(C(=O)Nc3cnccc3OC3CCCCC3)c(N)nn2c1", "note": "[I-O-39, 2-amino-6-(cyanomethyl)-N-(4-(cyclohexyloxy)pyridin-3-yl)pyrazolo[1,5-a]pyrimidine-3-carboxamide]", "Cisplatin Sensitization Assay": "+++ (Cisplatin sensitization value of <0.02 μM)"}
{"smiles": "Nc1nn2cc(F)cnc2c1C(=O)Nc1cnccc1N1CCC(c2ncon2)CC1", "note": "[I-N-241, N-(4-(4-(1,2,4-oxadiazol-3-yl)piperidin-1-yl)pyridin-3-yl)-2-amino-6-fluoropyrazolo[1,5-a]pyrimidine-3-carboxamide]", "Cisplatin Sensitization Assay": "+++ (Cisplatin sensitization value of <0.02 μM)"}
{"smiles": "CC(C)N1CCCC1C(=O)N1CCN(c2c(F)cncc2NC(=O)c2c(N)nn3cc(F)cnc23)CC1", "note": "(stereo not shown) [I-N-205, 2-amino-6-fluoro-N-(5-fluoro-4-(4-(1-isopropylpyrrolidine-2-carbonyl)piperazin-1-yl)pyridin-3-yl)pyrazolo[1,5-a]pyrimidine-3-carboxamide]", "Cisplatin Sensitization Assay": "++ (Cisplatin sensitization value>0.02 μM but <0.2 μM)"}
{"smiles": "Nc1nn2cc(Cl)cnc2c1C(=O)Nc1cnccc1N1CCC(N)CC1", "note": "[I-N-86, 2-amino-N-(4-(4-aminopiperidin-1-yl)pyridin-3-yl)-6-chloropyrazolo[1,5-a]pyrimidine-3-carboxamide]", "Cisplatin Sensitization Assay": "+++ (Cisplatin sensitization value of <0.02 μM)"}
{"smiles": "Nc1nn2cc(F)cnc2c1C(=O)Nc1cnccc1C1CC1", "note": "[I-C-42, 2-amino-N-(4-cyclopropylpyridin-3-yl)-6-fluoropyrazolo[1,5-a]pyrimidine-3-carboxamide]", "Cisplatin Sensitization Assay": "++ (Cisplatin sensitization value>0.02 μM but <0.2 μM)"}
{"smiles": "CN1CCCN(c2ccncc2NC(=O)c2c(N)nn3cc(Cl)cnc23)CC1", "note": "[I-N-43, 2-amino-6-chloro-N-(4-(4-methyl-1,4-diazepan-1-yl)pyridin-3-yl)pyrazolo[1,5-a]pyrimidine-3-carboxamide]", "Cisplatin Sensitization Assay": "++ (Cisplatin sensitization value>0.02 μM but <0.2 μM)"}
{"smiles": "Cc1cncn1-c1ccncc1NC(=O)c1c(N)nn2cc(F)cnc12", "note": "[I-N-283, 2-amino-6-fluoro-N-(4-(5-methyl-1H-imidazol-1-yl)pyridin-3-yl)pyrazolo[1,5-a]pyrimidine-3-carboxamide]", "Cisplatin Sensitization Assay": "++ (Cisplatin sensitization value>0.02 μM but <0.2 μM)"}
{"smiles": "COCC1CN(C(=O)C2CCN(c3c(F)cncc3NC(=O)c3c(N)nn4cc(F)cnc34)CC2)C1", "note": "[I-G-98, 2-amino-6-fluoro-N-(5-fluoro-4-(4-(3-(methoxymethyl)azetidine-1-carbonyl)piperidin-1-yl)pyridin-3-yl)pyrazolo[1,5-a]pyrimidine-3-carboxamide]", "Cisplatin Sensitization Assay": "+++ (Cisplatin sensitization value of <0.02 μM)"}
{"smiles": "Cc1ccnn1-c1ccncc1NC(=O)c1c(N)nn2cc(F)cnc12", "note": "[I-N-223, 2-amino-6-fluoro-N-(4-(5-methyl-1H-pyrazol-1-yl)pyridin-3-yl)pyrazolo[1,5-a]pyrimidine-3-carboxamide]", "Cisplatin Sensitization Assay": "++ (Cisplatin sensitization value>0.02 μM but <0.2 μM)"}
{"smiles": "Nc1nn2cc(Cl)cnc2c1C(=O)Nc1cnccc1N1CCC(N2CC[C@@H](F)C2)CC1", "note": "[I-N-98, (R)-2-amino-6-chloro-N-(4-(4-(3-fluoropyrrolidin-1-yl)piperidin-1-yl)pyridin-3-yl)pyrazolo[1,5-a]pyrimidine-3-carboxamide]", "Cisplatin Sensitization Assay": "+++ (Cisplatin sensitization value of <0.02 μM)"}
{"smiles": "Nc1nn2cc(F)cnc2c1C(=O)Nc1cncc(F)c1N1CCC(C(=O)NC2COC2)CC1", "note": "[I-G-37, 2-amino-6-fluoro-N-(5-fluoro-4-(4-(oxetan-3-ylcarbamoyl)piperidin-1-yl)pyridin-3-yl)pyrazolo[1,5-a]pyrimidine-3-carboxamide]", "Cisplatin Sensitization Assay": "++ (Cisplatin sensitization value>0.02 μM but <0.2 μM)"}
{"smiles": "Nc1nn2cc(F)cnc2c1C(=O)Nc1cnccc1-c1ccc(C(=O)N2CCN(C3COC3)CC2)cc1", "note": "[I-C-49, 2-amino-6-fluoro-N-(4-(4-(4-(oxetan-3-yl)piperazine-1-carbonyl)phenyl)pyridin-3-yl)pyrazolo[1,5-a]pyrimidine-3-carboxamide]", "Cisplatin Sensitization Assay": "+++ (Cisplatin sensitization value of <0.02 μM)"}
{"smiles": "Cc1ccnnc1-c1ccncc1NC(=O)c1c(N)nn2cc(F)cnc12", "note": "[I-C-33, 2-amino-6-fluoro-N-(4-(4-methylpyridazin-3-yl)pyridin-3-yl)pyrazolo[1,5-a]pyrimidine-3-carboxamide]", "Cisplatin Sensitization Assay": "+ (Cisplatin sensitization value>0.2 μM but <5 μM)"}
{"smiles": "CC1CN(c2ccncc2NC(=O)c2c(N)nn3cc(Cl)cnc23)CCN1C", "note": "(stereo not shown) [I-N-54, 2-amino-6-chloro-N-(4-(3,4-dimethylpiperazin-1-yl)pyridin-3-yl)pyrazolo[1,5-a]pyrimidine-3-carboxamide]", "Cisplatin Sensitization Assay": "+++ (Cisplatin sensitization value of <0.02 μM)"}
{"smiles": "CC1(N2CCN(C(=O)C3CCN(c4c(F)cncc4NC(=O)c4c(N)nn5cc(F)cnc45)CC3)CC2)COC1", "note": "[I-G-92, 2-amino-6-fluoro-N-(5-fluoro-4-(4-(4-(3-methyloxetan-3-yl)piperazine-1-carbonyl)piperidin-1-yl)pyridin-3-yl)pyrazolo[1,5-a]pyrimidine-3-carboxamide]", "Cisplatin Sensitization Assay": "+++ (Cisplatin sensitization value of <0.02 μM)"}
{"smiles": "Cc1nnc(N2CCN(c3ccncc3NC(=O)c3c(N)nn4cc(F)cnc34)CC2)o1", "note": "[I-N-256, 2-amino-6-fluoro-N-(4-(4-(5-methyl-1,3,4-oxadiazol-2-yl)piperazin-1-yl)pyridin-3-yl)pyrazolo[1,5-a]pyrimidine-3-carboxamide]", "Cisplatin Sensitization Assay": "++ (Cisplatin sensitization value>0.02 μM but <0.2 μM)"}
{"smiles": "Nc1nn2cc(F)cnc2c1C(=O)Nc1cncc(F)c1N1CCN2C(=O)OC[C@@H]2C1", "note": "[I-N-248, (S)-2-amino-6-fluoro-N-(5-fluoro-4-(3-oxotetrahydro-1H-oxazolo[3,4-a]pyrazin-7(3H)-yl)pyridin-3-yl)pyrazolo[1,5-a]pyrimidine-3-carboxamide]", "Cisplatin Sensitization Assay": "++ (Cisplatin sensitization value>0.02 μM but <0.2 μM)"}
{"smiles": "Nc1nn2cc(F)cnc2c1C(=O)Nc1cncc(F)c1N1CCN2C(=O)CC[C@@H]2C1", "note": "[I-N-182, (R)-2-amino-6-fluoro-N-(5-fluoro-4-(6-oxohexahydropyrrolo[1,2-a]pyrazin-2(1H)-yl)pyridin-3-yl)pyrazolo[1,5-a]pyrimidine-3-carboxamide]", "Cisplatin Sensitization Assay": "++ (Cisplatin sensitization value>0.02 μM but <0.2 μM)"}
{"smiles": "CC(C)(C)Oc1ccncc1NC(=O)c1c(N)nn2cc(F)cnc12", "note": "[I-O-88, 2-amino-N-(4-(tert-butoxy)pyridin-3-yl)-6-fluoropyrazolo[1,5-a]pyrimidine-3-carboxamide]", "Cisplatin Sensitization Assay": "+++ (Cisplatin sensitization value of <0.02 μM)"}
{"smiles": "CN1CC[C@H](Oc2ccncc2NC(=O)c2c(N)nn3cc(Cl)cnc23)C1", "note": "[I-O-69, (S)-2-amino-6-chloro-N-(4-((1-methylpyrrolidin-3-yl)oxy)pyridin-3-yl)pyrazolo[1,5-a]pyrimidine-3-carboxamide]", "Cisplatin Sensitization Assay": "++ (Cisplatin sensitization value>0.02 μM but <0.2 μM)"}
{"smiles": "CN1CC2(CCN(c3c(F)cncc3NC(=O)c3c(N)nn4cc(F)cnc34)CC2)OC1=O", "note": "[I-N-229, 2-amino-6-fluoro-N-(5-fluoro-4-(3-methyl-2-oxo-1-oxa-3,8-diazaspiro[4.5]decan-8-yl)pyridin-3-yl)pyrazolo[1,5-a]pyrimidine-3-carboxamide]", "Cisplatin Sensitization Assay": "+++ (Cisplatin sensitization value of <0.02 μM)"}
{"smiles": "COCCN1CCN(c2c(F)cncc2NC(=O)c2c(N)nn3cc(F)cnc23)CC1", "note": "[I-N-127, 2-amino-6-fluoro-N-(5-fluoro-4-(4-(2-methoxyethyl)piperazin-1-yl)pyridin-3-yl)pyrazolo[1,5-a]pyrimidine-3-carboxamide]", "Cisplatin Sensitization Assay": "+++ (Cisplatin sensitization value of <0.02 μM)"}
{"smiles": "CCOC1CN(C(=O)C2CCN(c3ccncc3NC(=O)c3c(N)nn4cc(F)cnc34)CC2)C1", "note": "[I-G-91, 2-amino-N-(4-(4-(3-ethoxyazetidine-1-carbonyl)piperidin-1-yl)pyridin-3-yl)-6-fluoropyrazolo[1,5-a]pyrimidine-3-carboxamide]", "Cisplatin Sensitization Assay": "+++ (Cisplatin sensitization value of <0.02 μM)"}
{"smiles": "Nc1nn2cc(F)cnc2c1C(=O)Nc1cnccc1N1CCN2C(=O)CCCC2C1", "note": "(stereo not shown) [I-N-244, 2-amino-6-fluoro-N-(4-(6-oxohexahydro-1H-pyrido[1,2-a]pyrazin-2(6H)-yl)pyridin-3-yl)pyrazolo[1,5-a]pyrimidine-3-carboxamide]", "Cisplatin Sensitization Assay": "+++ (Cisplatin sensitization value of <0.02 μM)"}
